Assay results taken from PMC6566410, “Novel Diamide-Based Benzenesulfonamides as Selective Carbonic Anhydrase IX Inhibitors Endowed with Antitumor Activity: Synthesis, Biological Evaluation and In Silico Insights” (International Journal of Molecular Sciences, 2019).
pKi: −log10 of the molar value.

Key:
[1] = tested on: MDA-MB-231/ATCC; experiment: NCI one-dose SRB assay; assay type: cell-based; details: Homo sapiens, MDA-MB-231/ATCC (Breast Cancer), 1.00E-5 Molar, read-out: Growth Percent
Experimental: (§1) First, all diamide-based benzenesulfonamides herein reported 5a–h were screened for their antitumor activity at one dose (10^−5 M) assay against a panel of sixty cancer cell lines through the National Cancer Institute (NCI) Developmental Therapeutic Program (www.dtp.nci.nih.gov), according to US-NCI protocol. The cell growth and cell viability were evaluated using the sulforhodamine B (SRB) colorimetric assay.
(§2) This assay was carried out according to the protocol of the Drug Evaluation Branch, NCI, Bethesda. The cell growth and cell viability were evaluated using the sulforhodamine B (SRB) colorimetric assay, as reported earlier.

[2] = tested on: OVCAR-4; experiment: NCI one-dose SRB assay; assay type: cell-based; details: Homo sapiens, OVCAR-4 (Ovarian Cancer), 1.00E-5 Molar, read-out: Growth Percent
Experimental: as §1, §2

[3] = tested on: SF-295; experiment: NCI one-dose SRB assay; assay type: cell-based; details: Homo sapiens, SF-295 (CNS Cancer), 1.00E-5 Molar, read-out: Growth Percent
Experimental: as §1, §2

[4] = tested on: SN12C; experiment: NCI one-dose SRB assay; assay type: cell-based; details: Homo sapiens, SN12C (Renal Cancer), 1.00E-5 Molar, read-out: Growth Percent
Experimental: as §1, §2

[5] = tested on: T-47D; experiment: NCI one-dose SRB assay; assay type: cell-based; details: Homo sapiens, T47D, T-47D (Breast Cancer), 1.00E-5 Molar, read-out: Growth Percent
Experimental: as §1, §2

[6] = tested on: SNB-75; experiment: NCI one-dose SRB assay; assay type: cell-based; details: Homo sapiens, SNB-75 (CNS Cancer), 1.00E-5 Molar, read-out: Growth Percent
Experimental: as §1, §2

[7] = tested on: SK-MEL-28; experiment: NCI one-dose SRB assay; assay type: cell-based; details: Homo sapiens, SK-MEL-28 (Melanoma), 1.00E-5 Molar, read-out: Growth Percent
Experimental: as §1, §2

[8] = tested on: OVCAR-3; experiment: NCI one-dose SRB assay; assay type: cell-based; details: Homo sapiens, OVCAR-3 (Ovarian Cancer), 1.00E-5 Molar, read-out: Growth Percent
Experimental: as §1, §2

[9] = tested on: SW-620; experiment: NCI one-dose SRB assay; assay type: cell-based; details: Homo sapiens, SW-620 (Colon Cancer), 1.00E-5 Molar, read-out: Growth Percent
Experimental: as §1, §2

[10] = tested on: SK-MEL-2; experiment: NCI one-dose SRB assay; assay type: cell-based; details: Homo sapiens, SK-MEL-2 (Melanoma), 1.00E-5 Molar, read-out: Growth Percent
Experimental: as §1, §2

[11] = tested on: OVCAR-8; experiment: NCI one-dose SRB assay; assay type: cell-based; details: Homo sapiens, OVCAR-8 (Ovarian Cancer), 1.00E-5 Molar, read-out: Growth Percent
Experimental: as §1, §2

[12] = tested on: CCRF-CEM; experiment: NCI one-dose SRB assay; assay type: cell-based; details: Homo sapiens, CCRF-CEM (Leukemia), 1.00E-5 Molar, read-out: Growth Percent
Experimental: as §1, §2

[13] = tested on: RPMI-8226; experiment: NCI one-dose SRB assay; assay type: cell-based; details: Homo sapiens, RPMI-8226 (Leukemia), 1.00E-5 Molar, read-out: Growth Percent
Experimental: as §1, §2

[14] = tested on: MOLT-4; experiment: NCI one-dose SRB assay; assay type: cell-based; details: Homo sapiens, MOLT-4 (Leukemia), 1.00E-5 Molar, read-out: Growth Percent
Experimental: as §1, §2

[15] = tested on: KM12; experiment: NCI one-dose SRB assay; assay type: cell-based; details: Homo sapiens, KM12 (Colon Cancer), 1.00E-5 Molar, read-out: Growth Percent
Experimental: as §1, §2

[16] = tested on: ACHN; experiment: NCI one-dose SRB assay; assay type: cell-based; details: Homo sapiens, ACHN (Renal Cancer), 1.00E-5 Molar, read-out: Growth Percent
Experimental: as §1, §2

[17] = tested on: MCF7; experiment: NCI one-dose SRB assay; assay type: cell-based; details: Homo sapiens, MCF7 (Breast Cancer), 1.00E-5 Molar, read-out: Growth Percent
Experimental: as §1, §2

[18] = tested on: MALME-3M; experiment: NCI one-dose SRB assay; assay type: cell-based; details: Homo sapiens, MALME-3M (Melanoma), 1.00E-5 Molar, read-out: Growth Percent
Experimental: as §1, §2

[19] = tested on: IGROV1; experiment: NCI one-dose SRB assay; assay type: cell-based; details: Homo sapiens, IGROV-1, IGROV1 (Ovarian Cancer), 1.00E-5 Molar, read-out: Growth Percent
Experimental: as §1, §2

[20] = tested on: SK-OV-3; experiment: NCI one-dose SRB assay; assay type: cell-based; details: Homo sapiens, SK-OV-3 (Ovarian Cancer), 1.00E-5 Molar, read-out: Growth Percent
Experimental: as §1, §2

[21] = tested on: COLO 205; experiment: NCI one-dose SRB assay; assay type: cell-based; details: Homo sapiens, COLO 205 (Colon Cancer), 1.00E-5 Molar, read-out: Growth Percent
Experimental: as §1, §2

[22] = tested on: HS 578T; experiment: NCI one-dose SRB assay; assay type: cell-based; details: Homo sapiens, HS 578T (Breast Cancer), 1.00E-5 Molar, read-out: Growth Percent
Experimental: as §1, §2

[23] = tested on: SNB-19; experiment: NCI one-dose SRB assay; assay type: cell-based; details: Homo sapiens, SNB-19 (CNS Cancer), 1.00E-5 Molar, read-out: Growth Percent
Experimental: as §1, §2

[24] = tested on: MDA-MB-468; experiment: NCI one-dose SRB assay; assay type: cell-based; details: Homo sapiens, MDA-MB-468 (Breast Cancer), 1.00E-5 Molar, read-out: Growth Percent
Experimental: as §1, §2

[25] = tested on: NCI/ADR-RES; experiment: NCI one-dose SRB assay; assay type: cell-based; details: Homo sapiens, NCI/ADR-RES (Ovarian Cancer), 1.00E-5 Molar, read-out: Growth Percent
Experimental: as §1, §2

[26] = tested on: SR; experiment: NCI one-dose SRB assay; assay type: cell-based, human; details: SR (Leukemia), 1.00E-5 Molar
Experimental: as §1, §2

[27] = tested on: panel of sixty cancer cell lines; experiment: NCI one-dose SRB assay, whole panel; assay type: cell-based; details: Homo sapiens, mean over the panel, 1.00E-5 Molar, read-out: Mean Growth Percent
Experimental: as §1, §2

[28] = tested on: UO-31; experiment: NCI one-dose SRB assay; assay type: cell-based; details: Homo sapiens; UO-31 (Renal Cancer), 1.00E-5 Molar, one dose; read-out: Growth Percent
Experimental: as §1
The obtained data were reported as mean-graph of the percentage growth of the different treated tumour cells (Supplementary Materials). Exploration of results for this assay confirmed that the examined diamide-based benzenesulfonamides 5a–h had non-significant activity towards most NCI cancer cell lines.
as §2

[29] = target: hCA IX (Homo sapiens, UniProt Q16790); experiment: stopped-flow CO2 hydrase assay; details: for Selectivity ratio I/IX: KI hCA I / KI hCA IX; for Selectivity ratio II/IX: KI hCA II / KI hCA IX
From the text: (§3) An Applied Photophysics stopped-flow instrument was used for assaying the CA catalysed CO2 hydration activity, as reported earlier [17]. The inhibition constants were obtained by non-linear least-squares methods using PRISM 3 and the Cheng-Prusoff equation as reported earlier, and represent the mean from at least three different determinations. The four tested CA isofoms were recombinant ones obtained in-house as reported earlier [26, 27, 28, 29].

[30] = target: hCA I (Homo sapiens, UniProt P00915); experiment: stopped-flow CO2 hydrase assay
Chain of hCA I (P00915 whole entry): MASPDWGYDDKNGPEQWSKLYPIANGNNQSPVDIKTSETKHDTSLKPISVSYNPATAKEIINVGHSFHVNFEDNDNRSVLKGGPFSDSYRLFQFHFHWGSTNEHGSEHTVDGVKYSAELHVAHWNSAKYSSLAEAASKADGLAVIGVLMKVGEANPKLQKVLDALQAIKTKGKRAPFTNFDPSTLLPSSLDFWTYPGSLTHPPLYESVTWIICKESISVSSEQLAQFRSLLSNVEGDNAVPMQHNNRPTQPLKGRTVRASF
From the text: as §3

| SMILES | activity at 10 µM [1] | activity at 10 µM [2] | activity at 10 µM [3] | activity at 10 µM [4] | activity at 10 µM [5] | activity at 10 µM [6] | activity at 10 µM [7] | activity at 10 µM [8] | activity at 10 µM [9] | activity at 10 µM [10] | activity at 10 µM [11] | activity at 10 µM [12] | activity at 10 µM [13] | activity at 10 µM [14] | activity at 10 µM [15] | activity at 10 µM [16] | activity at 10 µM [17] | activity at 10 µM [18] | activity at 10 µM [19] | activity at 10 µM [20] | other results |
| --- | --- | --- | --- | --- | --- | --- | --- | --- | --- | --- | --- | --- | --- | --- | --- | --- | --- | --- | --- | --- | --- |
| NS(=O)(=O)c1ccc(NC(=O)C(=Cc2ccc(Cl)cc2)NC(=O)c2ccccc2)cc1 [Compound 5a, N-(1-(4-Chlorophenyl)-3-oxo-3-((4-sulfamoylphenyl)amino)prop-1-en-2-yl)benzamide] | 105% | 95.5% | 104% | 104% | 95.5% | 86.3% | 110% | 104% | 100% | 102% | 97.6% | 107% | 109% | 103% | 108% | 100% | 98.3% | 96.3% | 90.9% | 97% | activity at 10 µM [21]: 104%; activity at 10 µM [22]: 101%; activity at 10 µM [23]: 103%; activity at 10 µM [24]: 101%; activity at 10 µM [25]: 104%; Growth Percent [26]: 96.44%; activity at 10 µM [27]: 100%; melting point: 255 to 258 °C; activity at 10 µM [28]: 78.7%; pKi [29]: 8.06; Selectivity ratio I/IX [29]: 449.5; Selectivity ratio II/IX [29]: 7.8; pKi [30]: 5.40 |
| COc1ccc(C=C(NC(=O)c2ccccc2)C(=O)Nc2ccc(S(N)(=O)=O)cc2)cc1OC [Compound 5g, N-(1-(3,4-Dimethoxyphenyl)-3-oxo-3-((4-sulfamoylphenyl)amino)prop-1-en-2-yl)benzamide] | 105% | 105% | 102% | 97.6% | 100% | 103% | 109% | 107% | 102% | 102% | 97.1% | 109% | 107% | 107% | 104% | 99.8% | 106% | 101% | 91.6% | 97.1% | activity at 10 µM [21]: 110%; activity at 10 µM [22]: 94.8%; activity at 10 µM [23]: 100%; activity at 10 µM [24]: 111%; activity at 10 µM [25]: 104%; Growth Percent [26]: 82.62%; activity at 10 µM [27]: 103%; melting point: 250 to 253 °C; activity at 10 µM [28]: 77.9%; pKi [29]: 6.91; Selectivity ratio I/IX [29]: 17.9; Selectivity ratio II/IX [29]: 3.6; pKi [30]: 5.66 |
| NS(=O)(=O)c1ccc(NC(=O)C(=Cc2ccc(Br)cc2)NC(=O)c2ccccc2)cc1 [Compound 5c, N-(1-(4-Bromophenyl)-3-oxo-3-((4-sulfamoylphenyl)amino)prop-1-en-2-yl)benzamide] | 105% | 93.7% | 99.2% | 99.4% | 92.1% | 86.5% | 113% | 103% | 104% | 97.3% | 102% | 99.4% | 97.2% | 89.5% | 102% | 100% | 98.1% | 92.2% | 90.2% | 101% | activity at 10 µM [21]: 105%; activity at 10 µM [22]: 93.9%; activity at 10 µM [23]: 95.1%; activity at 10 µM [24]: 99.9%; activity at 10 µM [25]: 102%; Growth Percent [26]: 88.11%; activity at 10 µM [27]: 97.3%; melting point: 210 to 212 °C; activity at 10 µM [28]: 77.2%; pKi [29]: 7.47; Selectivity ratio I/IX [29]: 71.6; Selectivity ratio II/IX [29]: 7.5; pKi [30]: 5.62 |
| NS(=O)(=O)c1ccc(NC(=O)C(=Cc2ccc(Cl)cc2Cl)NC(=O)c2ccccc2)cc1 [Compound 5b, N-(1-(2,4-Dichlorophenyl)-3-oxo-3-((4-sulfamoylphenyl)amino)prop-1-en-2-yl)benzamide] | 105% | 97.7% | 104% | 94.7% | 87.5% | 81.4% | 110% | 113% | 104% | 95.3% | 101% | 105% | 92.2% | 92.3% | 102% | 98.2% | 90.1% | 93.2% | 74.9% | 96.3% | activity at 10 µM [21]: 110%; activity at 10 µM [22]: 89.5%; activity at 10 µM [23]: 95.6%; activity at 10 µM [24]: 110%; activity at 10 µM [25]: 98.2%; Growth Percent [26]: 96.62%; activity at 10 µM [27]: 97%; melting point: 265 to 267 °C; activity at 10 µM [28]: 75.8%; pKi [29]: 7.74; Selectivity ratio I/IX [29]: 326.6; Selectivity ratio II/IX [29]: 12.2; pKi [30]: 5.22 |
